Source: ChEMBL document CHEMBL3244316, “Pharmacology of some metabolites of triazolam, alprazolam, and diazepam prepared by a simple, one-step oxidation of benzodiazepines” (1978)

Key:
Format in all cases: functional
Details in all cases: CF-1, ip
Mus musculus [1] = experiment: Effect on motor activity in ip dosed albino CF-1 mouse by dish test
Mus musculus [2] = experiment: Anxiolytic activity in ip dosed albino CF-1 mouse under hypoxic stress
Mus musculus [3] = experiment: Effect on motor activity in ip dosed albino CF-1 mouse by traction test
Mus musculus [4] = experiment: Anticonvulsant activity in ip dosed albino CF-1 mouse assessed as inhibition of pentylenetetrazole-induced seizures
Mus musculus [5] = experiment: Effect on motor activity in ip dosed albino CF-1 mouse by chimney test
Mus musculus [6] = experiment: Anticonvulsant activity in ip dosed albino CF-1 mouse assessed as inhibition of thiosemicarbazide-induced seizures
Mus musculus [7] = experiment: Effect on motor activity in ip dosed albino CF-1 mouse by pedestal test
Mus musculus [8] = experiment: Anticonvulsant activity in ip dosed albino CF-1 mouse assessed as inhibition of strychnine-induced seizures
Mus musculus [9] = experiment: Anticonvulsant activity in ip dosed albino CF-1 mouse assessed as inhibition of nicotine-induced seizures
Mus musculus [10] = experiment: Anticonvulsant activity in ip dosed albino CF-1 mouse assessed as inhibition of maximal electric shock-induced seizures
Mus musculus [11] = experiment: Antidepressant activity in ip dosed albino CF-1 mouse assessed as inhibition of ethanol-induced response

SMILES	ED50 (Mus musculus [1]) [mg/kg]	ED50 (Mus musculus [2]) [mg/kg]	ED50 (Mus musculus [3]) [mg/kg]	ED50 (Mus musculus [4]) [mg/kg]	ED50 (Mus musculus [5]) [mg/kg]	ED50 (Mus musculus [6]) [mg/kg]	ED50 (Mus musculus [7]) [mg/kg]	ED50 (Mus musculus [8]) [mg/kg]	ED50 (Mus musculus [9]) [mg/kg]	ED50 (Mus musculus [10]) [mg/kg]	ED50 (Mus musculus [11]) [mg/kg]
Cc1nnc2n1-c1ccc(Cl)cc1C(c1ccccc1Cl)=NC2O (stereo not given)	8	> 100	> 100	14	45	11.2	11	> 80	10	> 100	> 80
OCc1nnc2n1-c1ccc(Cl)cc1C(c1ccccc1)=NC2	2	0.02	8	0.22	0.63	0.08		9.9	0.08	50	1.8
CN(C)Cc1nnc2n1-c1ccc(Cl)cc1C(c1ccccc1)=NC2O (stereo not given)	5	25	22	4	4	0.88	22	> 40	2.2	> 100	> 20
OCc1nnc2n1-c1ccc(Cl)cc1C(c1ccccc1Cl)=NC2	0.03	0.5	0.6	0.018	0.14	0.014	0.17	0.5	0.01	89	0.4
OCc1nnc2n1-c1ccc(Cl)cc1C(c1ccccc1Cl)=NC2O (stereo not given)	5	30	> 100	32	2.2	0.39	44	> 80	1	> 100	50
OCc1nnc2n1-c1ccc(Cl)cc1C(c1ccccc1)=NC2O (stereo not given)	56	> 50	> 100	40	> 80	8.9	> 80	> 80	6.2	> 100	> 80
Clc1ccc2c(c1)C(c1ccccc1)=NCc1nccn1-2	5	25	16	2.2	3.6	1.6	4	7	1	32	3.6
OC1N=C(c2ccccc2)c2cc(Cl)ccc2-n2ccnc21 (stereo not given)	6	60	32	6.3	> 25	6.3	7	> 80	4	63	7.9
Cc1nnc2n1-c1ccc(Cl)cc1C(c1ccccc1)=NC2O (stereo not given) [4-HYDROXY-ALPRAZOLAM]	6.3	6.2	23	0.7	6.3	5	20	25	4	> 50	10
CN(C)Cc1nnc2n1-c1ccc(Cl)cc1C(c1ccccc1)=NC2 [ADINAZOLAM]	1.5	1.9	5.6	0.8	3.6	0.15	2.8	> 200	0.2	100	2.2
Cc1nnc2n1-c1ccc(Cl)cc1C(c1ccccc1)=NC2 [ALPRAZOLAM]	0.15	0.02	0.6	0.13	0.09	0.16	0.23	0.3	0.02	25	0.18
CN1C(=O)CN=C(c2ccccc2)c2cc(Cl)ccc21 [DIAZEPAM]	0.25	0.2	4	0.8	1.2	0.4	0.7	4	0.1	25	1
O=C1CN=C(c2ccccc2)c2cc(Cl)ccc2N1 [NORDAZEPAM]	0.5	0.7	7	1.6	0.7	1.8	0.9	20	0.3	> 100	1.8
O=C1Nc2ccc(Cl)cc2C(c2ccccc2)=NC1O (stereo not given) [OXAZEPAM]	1.1	12.5	13	0.7	1.8	0.9	2	9	0.14	79	1.8
CN1C(=O)C(O)N=C(c2ccccc2)c2cc(Cl)ccc21 (stereo not given) [TEMAZEPAM]	0.36	0.2	4	0.3	0.45	0.3	0.7	2.8	0.063	10	0.32
Cc1nnc2n1-c1ccc(Cl)cc1C(c1ccccc1Cl)=NC2 [TRIAZOLAM]	0.03	0.035	0.3	0.009	0.08	0.02	0.03	0.22	0.004	30	0.7
